The values below come from patent publication US20030166007A1, “Chemical proteomics” (MDS Proteomics Inc., priority 2002, published 2003).

“Also recorded” adds a separate entry of the source.

The target in test [1] is T1, Pterin-4-alpha-carbinolamine dehydrogenase (PCD) (Homo sapiens, UniProt P61457).
T1 construct: endogenous in cells; host or cells: HEK 293
T1 sequence (P61457 1-104): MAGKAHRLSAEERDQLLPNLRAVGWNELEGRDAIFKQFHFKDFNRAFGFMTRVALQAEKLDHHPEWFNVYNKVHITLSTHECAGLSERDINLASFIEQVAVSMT
As to the kind of experiment: MTX-agarose affinity chromatography of cell lysate, MS identification. The test is classed as binding. The conditions noted are these: HEK 293 lysate.
Experimental: (§1) After incubation for 30 minutes at 4° C. with shaking, the lysates were clarified by centrifugation (27,000×g). In some experiments, cells were lysed using 20 strokes of a Dounce® homogenizer in the absence of detergents. […] While optimizing the protocol, however, several experimental variations were tested on cell lysates including concentration by ammonium sulfate precipitation, or removal of nucleic acid with Streptomycin sulfate. In such cases, the protein sample was desalted using a PD 10 protein-desalting column (Pharmacia), which had been pre-equilibrated in the same buffer (10 mM potassium phosphate pH 7.5)
(§2) Affinity Chromatography: The desalted lysate was loaded onto a column of pre-equilibrated MTX-agarose (Sigma, 50 μL bed volume) or sepharose 4B agarose as a negative control. The lysates were allowed to slowly flow through the matrix under gravity flow. […] Retentates from the microcons were then loaded onto SDS-PAGE 4%-15% gradient mini gels (Bio-Rad). […]
(§3) The peptides were then separated by reverse phase chromatography on C18 resin and directly injected into a mass spectrometer using an automated sample-loading device from 96 well plates. […] The spectra generated were analyzed on a custom-built multi-node server platform (RADARS, ProteoMetrics), which uses two database searching programs, Sonar (ProteoMetrics) and Mascot (Matrix Sciences). […]

Test [2] addresses T2, Divalent Cation tolerant protein CUTA (Homo sapiens, UniProt O60888).
T2 construct: endogenous in cells; host or cells: HEK 293
T2 sequence (O60888 33-179): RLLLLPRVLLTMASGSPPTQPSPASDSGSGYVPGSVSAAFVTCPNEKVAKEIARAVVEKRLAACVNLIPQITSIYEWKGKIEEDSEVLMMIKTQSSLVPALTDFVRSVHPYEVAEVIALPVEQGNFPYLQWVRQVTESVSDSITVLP
Described as above. Particulars: HEK 293 lysate. The class given is binding.
Experimental: as §1, §2, §3

Test [3] deals with purine de novo synthesis in leukemia cells. The conditions noted are these: on treatment with Methotrexate; cited from earlier work.
The target in the next test is T3, HPRT (Homo sapiens, UniProt P00492).
T3 sequence (P00492 1-218): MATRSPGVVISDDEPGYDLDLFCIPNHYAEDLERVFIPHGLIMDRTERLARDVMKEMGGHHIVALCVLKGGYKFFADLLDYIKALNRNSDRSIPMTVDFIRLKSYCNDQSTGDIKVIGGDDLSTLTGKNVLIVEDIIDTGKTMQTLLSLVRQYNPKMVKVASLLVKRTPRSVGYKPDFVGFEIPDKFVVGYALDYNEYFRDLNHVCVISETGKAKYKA
Particulars: cited from earlier work.

A further test deals with Glycogen Phosphorylase. The test is described as follows: MTX-agarose affinity chromatography of cell lysate, MS identification. The class given is binding, human. The conditions noted are these: HEK 293 lysate.
For a further test, the target named is T4, Nudix 5 (Homo sapiens, UniProt Q9UKK9).
T4 construct: endogenous in cells; host or cells: HEK 293
The description is as above. The class given is binding. Particulars: HEK 293 lysate.

In test [4] the target is T5, Hypoxanthine phosphoribosyltransferase (HPRT) (Homo sapiens, UniProt P00492).
T5 construct: endogenous in cells; host or cells: HEK 293
T5 sequence (P00492 1-218): T3 sequence (P00492 1-218)
Described as above. The class given is binding. The conditions noted are these: HEK 293 lysate, lane 9.
Experimental: as §1, §2, §3

In test [5] the test system is Glycinamideribonucleotide synthase (GARS). Described as above. The conditions noted are these: HEK 293 lysate; 110 kDa trifunctional protein and separate 50 kDa band. The test is classed as binding, human.
Experimental: as §1, §2, §3
Test [6] has as its system intracellular levels of PRPP. The conditions noted are these: reversible upon treatment with hypoxanthine; cited from earlier work.
The target in test [7] is Amido phosphoribosyltransferase (Homo sapiens, UniProt Q06203). The test is described as follows: MTX-agarose affinity chromatography of cell lysate, MS identification. The test is classed as binding. On the set-up: endogenous in cells; host or cells: HEK 293 (also Jurkat, K562, A431). Particulars: lysates from HEK293, Jurkat, K562 and A431.
Sequence of Amido phosphoribosyltransferase (Q06203 12-517): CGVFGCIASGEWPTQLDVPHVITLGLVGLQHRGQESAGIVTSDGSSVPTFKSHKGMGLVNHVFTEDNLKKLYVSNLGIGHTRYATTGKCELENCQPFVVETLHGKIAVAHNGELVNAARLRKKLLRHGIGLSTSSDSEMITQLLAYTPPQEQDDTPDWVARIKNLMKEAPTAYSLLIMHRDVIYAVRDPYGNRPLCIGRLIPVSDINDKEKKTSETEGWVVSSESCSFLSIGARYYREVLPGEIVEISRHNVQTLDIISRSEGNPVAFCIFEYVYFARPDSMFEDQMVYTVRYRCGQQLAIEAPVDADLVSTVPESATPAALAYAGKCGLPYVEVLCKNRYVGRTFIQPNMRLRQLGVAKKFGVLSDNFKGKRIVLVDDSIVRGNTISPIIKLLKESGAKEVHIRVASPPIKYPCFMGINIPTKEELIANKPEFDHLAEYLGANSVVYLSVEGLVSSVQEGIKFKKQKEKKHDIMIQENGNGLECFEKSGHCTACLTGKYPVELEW
Experimental: as §1, §2, §3
For test [8], the system named is Inosine monophosphate dehydrogenase. The description is as above. The test is classed as binding, human. The conditions noted are these: HEK 293 lysate.
Experimental: as §1, §2, §3
A further test concerns the target T6, Nudix 1 (Homo sapiens, UniProt P36639).
T6 construct: endogenous in cells; host or cells: HEK 293
Described as above. The test is classed as binding. The conditions noted are these: HEK 293 lysate.

A further test has as its target T7, Pyridoxal Kinase (Homo sapiens, UniProt O00764).
T7 construct: endogenous in cells; host or cells: HEK 293
T7 sequence (O00764 1-312): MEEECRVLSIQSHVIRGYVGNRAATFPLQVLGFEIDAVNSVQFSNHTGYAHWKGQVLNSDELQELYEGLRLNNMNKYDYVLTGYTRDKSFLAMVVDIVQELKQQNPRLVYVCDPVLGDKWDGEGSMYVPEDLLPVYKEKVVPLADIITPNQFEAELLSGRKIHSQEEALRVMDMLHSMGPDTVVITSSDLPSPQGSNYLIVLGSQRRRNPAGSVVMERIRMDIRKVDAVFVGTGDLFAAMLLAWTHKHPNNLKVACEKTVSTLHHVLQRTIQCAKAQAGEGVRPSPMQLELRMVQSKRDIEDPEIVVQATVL
The test is described as above. The test is classed as binding. The conditions noted are these: HEK 293 lysate.

Experimental for Glycogen Phosphorylase: as §1, §2, §3
Experimental for Nudix 1: as §1, §2, §3
Experimental for Nudix 5: as §1, §2, §3
Experimental for Pyridoxal Kinase: as §1, §2, §3

Turning to `CN(Cc1cnc2nc(N)nc(N)c2n1)c1ccc(C(=O)N[C@@H](CCC(=O)O)C(=O)O)cc1` [Methotrexate], the “Protein identified by Mass Spec.; New MTX interactor” value in test [1] was “binds directly to Methotrexate”; in test [1] (listed as MTX) it was “✓”; with Glycogen Phosphorylase it was “direct binder of Methotrexate”; in the test on Glycogen Phosphorylase (listed as MTX) it was “✓”; in test [4], “identified in the pull down in lane 9”; in test [4] (listed as MTX), “✓”. For the same molecule, the “Protein identified by Mass Spec.; New MTX interactor” value was “found to interact with Methotrexate” in test [7]; “✓” in [7] (listed as MTX); “binds this enzyme directly” in test [8]; “✓” in test [8] (listed as MTX); “direct binder of Methotrexate” on Pyridoxal Kinase; “✓” on Pyridoxal Kinase (listed as MTX). Also, the “Association with the Methotrexate matrix” value in test [2] is “consistently found; also recorded: pulled down consistently”; on Nudix 5, “consistently found; also recorded: direct interactions with the Methotrexate probe”; in test [5], “GARS-derived peptides were isolated”; on Nudix 1, “consistently found”. In addition, the “accumulation of 5-phosphoribosyl-1-pyrophosphate” value in test [3] is on record as 3-4 fold. Also, in test [3], the “de novo purine pathway” value was “completely blocked”. In addition, at HPRT, the “effect on activity of HPRT” value was “can reduce the activity of HPRT”. Besides, the “effect on levels of PRPP” value in test [6] is on record as “raising the intracellular levels of PRPP; also recorded: increase on levels of PRPP”.
